Entries after “also recorded” stand apart in the source; their conditions may differ.
How the values were obtained:
[1] = Reaction of spin traps with oxidant in CAPD dialysate, ESR detection; conditions: oxidant system; for final nominal concentration at which spin trap reached an excess: 60 μl dialysate, 25 min at room temperature; for signal/marker ratio: DBNBS at 1.2 mM, DCNBS at 2.5 mM
Experimental: (§1) ESR spectra were obtained using a prototype spectrometer (Jeol (U.K) Ltd., Welwyn Garden City, England) equipped with a TE011 cylindrical cavity. Samples were analysed at room temperature in a WG-LC-11 quartz flat cell (Wilmad-Glass, Buena, N.J.). In general the instrument parameters were: microwave frequency 9.2 GHz, microwave power 4 mW, centre field (CF) 336.7 mT, sweep width (SW) ±5 mT, number of data points 4095, modulation frequency 100 kHz. For the spin traps reacted with horseradish peroxidase/H2O2/sulphite: sweep time 200 s, time constraint 0.1 s, modulation width 0.05. For the spin traps reacted with the oxidant and NO; sweep time 150 s, time constraint 0.3 s, modulation width 0.2 mT. A JEOL ES-DM1 digital manganese oxide marker (0.03 mm of the glass tube inserted per unit on the dial setting) with a dial setting of 500 was used to ensure the reproducibility between samples and to identify the position of the signals in the microwave field.
Dialysate from a patient with renal failure on Continuous Ambulatory Peritoneal Dialysis (CAPD) was used for this study. The dialysate was collected when the dialysate bag was changed.
Solutions of 10 mM DBNBS and DCNBS (5, 8, 12, 25 and 30 μl for final concentrations of 0.5, 0.8, 1.2, 2.5 and 3.0 mM) were added to 60 μl of the dialysate. The difference in volume comprised PBS. The reaction mixture was mixed thoroughly and analysed by ESR spectroscopy after 25 min incubation at room temperature.

[2] = Reaction of spin traps with nitric oxide, ESR detection; conditions: for spin trap concentration giving maximum signal intensity / plateau / time at which reaction with NO reaches a maximum: NO 1 mM; for spin trap concentration giving maximum signal intensity / plateau: DBNBS incubated 26 hr, DCNBS 22 hr; for time at which reaction with NO reaches a maximum / limit of detection for NO (S/N ratio equals 3) / limit of quantitation for NO (S/N ratio equals 10): spin trap 0.15M; for time at which reaction with NO reaches a maximum: Tris-HCl pH 7.4; for limit of detection for NO (S/N ratio equals 3) / limit of quantitation for NO (S/N ratio equals 10): DBNBS 50 hr, DCNBS 20 hr, linear part of curve 0 to 10 μM
Experimental: as §1
The apparatus shown in FIG. 1 was flushed with nitrogen for 15 min. The vacutainer containing deionised water (4 ml) was then connected to the system and flushed with nitrogen for a further 15 min, to remove any oxygen present in the system, and therefore to prevent the formation of nitrogen dioxide. The NO gas was bubbled through the deionised water via the system for 45 min. The small amount of nitrogen dioxide present in the pressurised NO container was removed by bubbling through two bottles of 5M NaOH. The gas was then bubbled through a scrubbing bottle containing deionised water to remove any alkaline aerosol contamination. Any excess of NO after the deionised water step was bubbled through a scrubbing bottle containing 1M potassium permanganate/1M NaOH to prevent excess NO escaping from the fume hood. The concentration of NO in the resulting NO-saturated water was taken to be 2.0 mM.
Samples of DBNBS, DCNBS and DMNBS were weighed into vacutainers and evacuated. Tris-HCl buffer, 0.01M, pH 7.4, was deoxygenated by bubbling with nitrogen gas for 15 min. The deoxygenated buffer was added to the spin traps by a gas tight syringe to give a final spin trap concentration of 0.30M. The spin trap solution was briefly flushed with nitrogen and was then ready for use.
NO-saturated water (1 ml) was added to 1 ml of each of the spin trap solutions (DBNBS, DCNBS and DMNBS). The final concentrations of the spin traps were 0.15M and NO 1 mM. Parallel blanks were carried out by adding 1 ml of deoxygenated water to the spin trap solutions. At each time point samples were taken from test solutions and blanks for ESR spectroscopic analysis and the blank was substracted from the spectra.
The spin trap solutions were prepared as above to give final concentrations of 0.05, 0.1, 0.15, 0.2 and 0.25M in the reaction mixtures and the parallel blanks. The saturated NO solution (0.5 ml, final concentration 1 mM) was added to the test solutions and the deoxygenated water (0.5 ml) was added to the blanks. The reaction mixtures with DBNBS were incubated for 26 hr. while those with DCNBS were incubated for 22 hr. before analysis by ESR spectroscopy. The blanks were subtracted from their parallel test spectra respectively.
The concentration of NO in NO saturated water is taken to be 2.0 mM. This NO solution was diluted with deoxygenated water to give final concentrations in the reaction mixture of 0, 0.25, 0.5, 1, 2.5, 5, 10, 50 and 100 μM. The NO solution was added to DBNBS and to DCNBS to give a final spin trap concentration of 0.15M. The blank (or zero point) was ran by adding 0.5 ml of deoxygenated deionised water to the spin trap solutions. The reaction mixture containing DBNBS was incubated for 50 hr, and that containing DCNBS was incubated for 20 hr. The signal to noise ratio was calculated from each spectrum. All withdrawals and additions of solutions were carried out using a gas-tight syringe.

[3] = Spin trapping of SO3− (horseradish peroxidase/H2O2/sulphite), ESR detection; conditions: for optimal concentration of spin trap: 25 min incubation at room temperature; for signal/marker ratio: at optimal concentration (DBNBS 17.72 mM, DCNBS 20-25 mM)
Experimental: as §1
Solutions of the spin traps DBNBS, DCNBS and DMNBS (40 mM) (25, 50, […], 110.75, 125 and 156.25 μl for final concentrations of 4, 8, 14.68, 17.72, 20 and 25 mM in PBS) were added to 8 μl horseradish peroxidase (91 μM in PBS), 8 μl K2SO3 (100 mM in water) and 12.5 μl H2O2 (5 mM in PBS). The difference in the volume comprised PBS (pH 7.4). The final volume of the reaction mixture was 250 μl. The reaction mixture was mixed thoroughly and analysed by ESR spectroscopy after 25 min incubation at room temperature. Controls were run using individual reactants as well as the reaction mixture above in the absence of the spin traps.

[4] = Solubility of the spin trap in aqueous systems; type: physicochemical; conditions: Sodium Salt

| SMILES | final nominal concentration at which spin trap reached an excess [1] | signal/marker ratio [1] | spin trap concentration giving maximum signal intensity / plateau [2] | time at which reaction with NO reaches a maximum [2] | limit of detection for NO (S/N ratio equals 3) [2] | limit of quantitation for NO (S/N ratio equals 10) [2] | optimal concentration of spin trap ([3]; SO3− system) | signal/marker ratio ([3]; SO3− system) | ESR signal height for SO3− adduct relative to DBNBS-d2-15N ([3]; SO3− generated from HRP, H2O2, SO3 2−) | sensitivity relative to DBNBS ([3]; SO3− system, at optimal concentrations) | solubility compared with DBNBS [4] |
| --- | --- | --- | --- | --- | --- | --- | --- | --- | --- | --- | --- |
| O=Nc1c(Br)cc(S(=O)(=O)[O-])cc1Br.[Na+] [DBNBS, 3,5-dibromo-4-nitrosobenzenesulphonate, sodium salt, reference compound] | ca. 1.2 mM | 0.516 | 0.15 M | approximately 50 hr | 0.23 µM | 0.92 µM | 17.72 mM | 3.33 |  |  |  |
| Cc1cc(S(=O)(=O)[O-])cc(C)c1N=O.[Na+] [DMNBS, 3,5-Dimethyl-4-nitrosobenzenesulphonate, Sodium Salt] |  |  |  | 24 to 28 h |  |  |  |  | more than three times |  |  |
| O=Nc1c(Cl)cc(S(=O)(=O)[O-])cc1Cl.[Na+] [DCNBS, 3,5-Dichloro-4-nitrosobenzenesulphonate, Sodium Salt] | 2.5 mM | 0.521 | 0.05 to 0.40 M | 20 to 24 h | 4.06 µM | 17.30 µM | 20 to 25 mM | 10.62 |  | 3 times | improved solubility; also recorded: more soluble than DBNBS |

— patent US6767715B2, “Nitroso compounds and their use as spin traps” (Randox Laboratories Ltd., priority 2000, dated 2004)
